Reference: paper PMC7819857, “Identification of Inhibitors of Integrin Cytoplasmic Domain Interactions With Syk” (Frontiers in Immunology, 2021)

Key:
[1] = biological target: T1, integrin β3 cytoplasmic domain (bβ3(fl)) : GST-Syk(6-370) (Homo sapiens, UniProt P43405); assay: ELISA-based orthogonal assay, bβ3(fl) and GST-Syk(6-370); format: binding
T1 construct: the tandem SH2 domains of Syk (residues 6-370); made in house; host or cells: E. coli BL21(DE3)
Protocol: For ELISA-based assays, 96-well plates (Costar cat# 9018) were coated overnight at 4°C with neutravidin (Thermo Scientific, cat#31050) in 10 mM Tris pH 9 and 100 mM NaCl. After overnight incubation, non-specific binding sites were blocked with bovine serum albumin (BSA) (2% w/v) for at least 1 h at room temperature. Plates were washed in 25 mM HEPES pH 7.5, 100 mM NaCl, 0.1% BSA, and 0.01% TritonX-100 (assay buffer), and indicated biotinylated β3 peptide was incubated for at least 2 h at room temperature (0.5–3 ug/ml in di-H2O). After washing in the assay buffer, GST-fusion proteins were added (50 ul, indicated concentrations) and incubated at room temperature for 1 h in assay buffer. For compound inhibition studies, compounds were added to GST-fusion proteins (at indicated concentrations) before they were added to plates. Plates were washed 3× with assay buffer (200 ul) to remove unbound GST-fusion protein. Horseradish peroxidase (HRP)-conjugated anti-GST antibody [Polyclonal anti-GST(Z-5)-HRP, Santa Cruz Biotechnology, cat #sc-459 0.2 ug/ml] was incubated in washed plates in 50 ul assay buffer for 45 min at room temperature. After washing, the signal was generated with 1-step Ultra TMB-ELISA (Thermo Scientific, cat#34028), stopped with 2 N H2SO4, and read on a plate reader (SPARK 10M/Tecan) at 450 nm.
Figure 3 Dose-response curves in primary and orthogonal screens. (A) AlphaScreen dose-response curves. […] Data are expressed as mean fluorescence (Fl520) ± range from duplicates, and one representative experiment of “n” performed is shown. (B) Orthogonal ELISA-based dose-response assays. […] Data are expressed as mean abs450 ± SEM from triplicate determinations, and one of three representative experiments is shown. (C) Ceftazidime inhibition of β3 peptide binding to Syk from THP-1 whole cell lysate. THP-1 cell lysate (100 ug) was treated with or without ceftazidime (Ctaz) before incubation with β3-coated avidin-agarose beads, and bound Syk was measured by western blot (example shown in inset). Blank beads served as a negative control. […]

[2] = system: FcγRI signaling via Syk in THP-1 cells; assay: FcγRI-crosslinking-induced phosphorylation of Syk in THP-1 cells; format: cell-based, human; conditions: 100 µM loaded cells, anti-FcγRI mAb 276426
Protocol: Syk phosphorylation assays were performed by immobilizing vascular cell adhesion molecule-1 (VCAM)-1 (3 ug/ml), CS-1-BSA (10 ug/ml), or specific monoclonal antibodies (anti-FcγRI mAb 276426, anti-α4β1 mAb 19H8, anti-β2 mAb 76C3, anti-αvβ3 mAb LM609 all at 5 ug/ml) overnight at 4°C in Tris-HCl pH 7.5, 150 mM NaCl, in 6-well plates (non-tissue culture treated, Becton Dickenson, cat# BD351146). Plates were then blocked with BSA (2% w/v) for 1 h at room temperature. […] After electrophoresis, proteins were transferred to nitrocellulose for 1 h 100 V room temperature, blocked in 5% non-fat milk in TBS-T, and probed with the indicated primary antibody at 1:1,000 overnight at 4°C, followed by species-appropriate HRP secondary antibody (Southern Biotech) at 1:5,000 (30 min at room temperature), and detected using Pierce West Pico (Thermo Scientific cat# 34580). […]
Figure 6 Selective inhibition of integrin signaling by ceftazidime. […] Data are expressed as mean ± range from duplicate determinations. […] Kinase activity is expressed as percent of maximum signal. Data are expressed as mean ± SEM (n = 3). **p < 0.01 (D) Selective effects of ceftazidime on integrin signaling. […] Phosphorylation of Syk (left and right panel) and Pyk-2 (center panel) was analyzed by immunoprecipitation and western blot. […] Results are expressed as the mean ± SEM. […]

inhibitory activity in ELISA-based orthogonal assay [1]: remained active
Compound: CC(C)(O/N=C(\C(=O)N[C@@H]1C(=O)N2C(C(=O)[O-])=C(C[n+]3ccccc3)CS[C@H]12)c1csc(N)n1)C(=O)O [ceftazidime]
tyrosine phosphorylation of Syk on FcγRI crosslinking [2]: not inhibited
